Source: patent US20250339462A1, “CANCER TREATMENT USING ULTRA-HIGH CONCENTRATION GASEOUS NITRIC OXIDE AND A CHECKPOINT INHIBITOR” (Beyond Air, Inc., priority 2022, published 2025)

Test system: AH-1+CD8+ T-cells (tumor antigen-specific CD8+ T-cells)
Test: Flow cytometry for tumor antigen-specific CD8+ T-cells in blood of CT26 tumor-bearing mice
Assay type: in vivo, mouse
Settings: day 7 after UNO treatment
Method: Preparation of cancer cells for injection—Mouse colon carcinoma CT26.WT cells (ATCC, Cat no. CRL-2638) suspended in Hanks' Balanced Salt Solution (HBSS) (Biological Industries, Israel), at a concentration of 5.0×10^6 cells/ml, were freshly prepared on the day of cancer model induction. Cells were grown to 70% confluency and were harvested using trypsin (Biological Industries, Israel), and counted using a cell counter device. The cells were then centrifuged at 1,200 rpm (241×g) for 8 minutes, and the pellet was re-suspended in ice cold HBSS at 5.0×10^6 in 1 ml (5.0×10^5 cells in 100 μl solution). Cell viability was >90% as determined by trypan blue staining prior to inoculation to mice. At the point of inoculation, cells were at passage 8 at most. […]
UNO treatment—On the day of treatment, mice were anesthetized by an intra-peritoneal (i.p.) injection of 100 mg/kg ketamine and 10 mg/kg of xylazine hydrochloride solution. […] After treatment, all mice were warmed and closely monitored until complete recovery was observed. […]
Flow cytometry for tumor antigen-specific CD8+ T-cells—On day 7 after the UNO treatment, 100 μl of peripheral blood was collected by submandibular bleeding from each mouse into tubes containing 0.5M EDTA PH 8.0. […] Data was analyzed using the FlowJo software.

[N]=O [UNO, nitric oxide]
Systemic levels of AH-1+CD8+ T-cells vs untreated or naive mice: higher | AH-1+CD8+ T-cells in the blood (UNO 100,000 ppm 5 min, anti-mCTLA-4 5 mg/kg i.p. twice): detected in the blood of all mice
